# From ChEMBL document CHEMBL4138122, “Azaphenothiazines - promising phenothiazine derivatives. An insight into nomenclature, synthesis, structure elucidation and biological properties” (Eur J Med Chem, 2017)
# Experiments:
# Candida albicans [1] = assay: microbe, parasite or virus in culture
# Escherichia coli = assay: Antibacterial activity against Escherichia coli; format: functional; settings: for MIC: Escherichia coli
# [2] = molecular target: Intercellular adhesion molecule 1 (Homo sapiens, UniProt P05362); assay: Inhibition of ICAM1 (unknown origin)
# Mus musculus [3] = assay: Anti-inflammatory activity in mouse IL-1-induced paw inflammation model assessed as inhibition of neutrophil infiltration at 10 mg/kg, po; format: functional; settings: for inhibition in vivo at 10 mg/kg: Mus musculus, po
# PBMC [4] = assay: Inhibition of LPS-induced TNFalpha profduction in human PBMC at 5 ug/ml; format: functional
# PBMC [5] = assay: Cytotoxicity in human PBMCs assessed as reduction in cel viability at 50 ug/ml; format: cell-based
# UO-31 = assay: Growth inhibition of human UO31 cells at 10 uM; format: functional; settings: read-out: GI
# Mus musculus [6] = assay: Anti-inflammatory activity in IL1-induced paw inflammation Balb/c mouse model assessed as inhibition of neutrophil migration at 10 mg/kg, po, pretreated for 30 mins followed by IL1 challenge measured after 2 hrs by spectrophotometric method; format: functional
# MCF7 = assay: Cytotoxicity against human MCF7 cells incubated for 72 hrs by WST1 dye based assay; format: functional, cell-based; settings: MCF7, 72 h
# Rattus norvegicus = assay: Analgesic activity in Sprague-Dawley rat assessed as reduction in phenylbenzoquinone-induced number of writhes at 20 mg/kg, sc incubated for 60 mins; format: functional; set-up: scale not given: the % may be the effect or the level left
# Lipoxygenase = Lipoxygenase (Glycine max, UniProt Q39829); assay: Inhibition of soybean lipoxygenase using linoleic acid as substrate preincubated for 5 mins followed by substrate addition measuredf after 7 mins by solution A/B solution based assay
# Bacillus cereus = assay: Antibacterial activity against Bacillus cereus; format: functional, organism-based
# Staphylococcus aureus [7] = assay: Antibacterial activity against Staphylococcus aureus; format: functional
# Enterococcus faecalis = assay: Antibacterial activity against Enterococcus faecalis; format: functional
# [8] = Displacement of [3H]-diazepam from benzodiazepine receptor in rat brain membranes after 30 mins; format: cell membranes, Membrane
# [9] = Inhibition of lipoxygenase in rat peritoneal cavity resident cells
# [10] = Inhibition of soybean 15-lipoxygenase; set-up: species or system Glycine max
# HFF-1 = assay: Cytotoxicity against human HFF1 cells incubated for 72 hrs by WST1 dye based assay; format: cell-based; settings: HFF-1, 72 h
# PBMC [11] = assay: Inhibition of PHA-induced cell proliferation of human PBMC at 50 ug/ml incubated for 4 days by MTT method; format: functional; settings: 96 h
# Mus musculus [12] = assay: Analgesic activity in mouse assessed as reduction in phenylquinone-induced number of writhes at 20 mg/kg, ip; format: functional; set-up: scale not given: the % may be the effect or the level left
# [13] = Inhibition of LTB4 formation in rat polymorphonuclear leukocytes preincubated for 2 mins followed by A-23187 addition after 4 mins; format: functional, cell-based
# Bacillus subtilis = assay: Antibacterial activity against Bacillus subtilis; format: functional
# [14] = system: Trichophyton mentagrophytes; assay: Antimicrobial activity against Trichophyton mentagrophytes assessed as reduction in microbial growth at 100 ppm relative to control; format: functional
# Aureobasidium pullulans = assay: Antimicrobial activity against Pullularia pullulans assessed as reduction in microbial growth at 100 ppm relative to control; format: functional
# Candida albicans [15] = assay: Antimicrobial activity against Candida albicans assessed as reduction in […] growth at 100 ppm relative to control; format: functional
# Staphylococcus aureus [16] = assay: Antimicrobial activity against Staphylococcus aureus assessed as reduction in bacterial growth at 100 ppm relative to control; format: functional
# Aspergillus terreus = assay: Antimicrobial activity against Aspergillus terreus assessed as reduction in microbial growth at 100 ppm relative to control; format: functional
# Mus musculus [17] = assay: Neuropharmacological activity in iv dosed Charles River Swiss mouse assessed as minimum dose at which reactive signs were observed in half of mouse tested; format: functional
# [18] = molecular target: Cholinesterase (Equus caballus) (UniProt P81908); assay: Inhibition of horse serum BChE at 10 uM
# Chain of Cholinesterase (Equus caballus) (P81908 whole entry): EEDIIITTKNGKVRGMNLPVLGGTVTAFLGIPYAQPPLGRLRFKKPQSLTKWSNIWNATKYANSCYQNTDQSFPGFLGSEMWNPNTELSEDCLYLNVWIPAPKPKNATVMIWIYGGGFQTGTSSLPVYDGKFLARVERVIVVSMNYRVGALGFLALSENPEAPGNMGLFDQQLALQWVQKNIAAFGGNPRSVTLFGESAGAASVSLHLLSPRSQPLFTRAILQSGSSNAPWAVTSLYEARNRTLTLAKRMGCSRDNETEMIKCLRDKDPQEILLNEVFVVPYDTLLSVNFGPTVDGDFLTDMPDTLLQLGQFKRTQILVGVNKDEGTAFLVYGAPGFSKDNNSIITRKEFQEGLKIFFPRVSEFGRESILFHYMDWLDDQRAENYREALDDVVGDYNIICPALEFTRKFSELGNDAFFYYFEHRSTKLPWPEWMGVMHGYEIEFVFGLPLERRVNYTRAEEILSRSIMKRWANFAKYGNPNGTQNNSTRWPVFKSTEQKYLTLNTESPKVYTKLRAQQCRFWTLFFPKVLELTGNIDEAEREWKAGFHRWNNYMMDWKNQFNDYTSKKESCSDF
# Chain of Intercellular adhesion molecule 1 (P05362 whole entry): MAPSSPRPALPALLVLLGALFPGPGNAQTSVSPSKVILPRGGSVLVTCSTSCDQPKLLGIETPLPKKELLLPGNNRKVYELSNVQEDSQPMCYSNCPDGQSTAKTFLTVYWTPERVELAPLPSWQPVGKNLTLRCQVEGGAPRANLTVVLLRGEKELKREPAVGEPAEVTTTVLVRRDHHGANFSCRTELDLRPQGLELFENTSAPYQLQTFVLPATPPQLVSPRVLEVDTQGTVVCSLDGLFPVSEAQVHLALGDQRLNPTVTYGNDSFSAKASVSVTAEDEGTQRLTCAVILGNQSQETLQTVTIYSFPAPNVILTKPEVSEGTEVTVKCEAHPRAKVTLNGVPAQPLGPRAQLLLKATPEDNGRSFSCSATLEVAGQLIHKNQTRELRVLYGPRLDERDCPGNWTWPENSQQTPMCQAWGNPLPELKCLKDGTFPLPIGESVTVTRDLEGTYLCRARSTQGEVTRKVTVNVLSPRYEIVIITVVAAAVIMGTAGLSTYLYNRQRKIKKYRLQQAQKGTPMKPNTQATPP
structure (smiles),measurement,setting,value
COc1ccc2c(n1)Sc1c3c(c4ccccc4c1=N2)=Nc1ccc(OC)nc1S3,MIC,Candida albicans [1],72.4 µg/mL
same,MIC,Escherichia coli,144 µg/mL
O=C(O)c1ccc(CC2CCN(Cc3ccc4c(c3)Nc3nccnc3S4)CC2)cc1,IC50,[2],420 to 1000 nM
same,inhibition in vivo at 10 mg/kg,Mus musculus [3],88%
c1cnc2c(c1)Sc1ccncc1N2CCN1CCCC1,inhibition at 5 µg/mL,PBMC [4],> 85%
same,Activity,PBMC [5],<= 22%
c1ccc(CN2c3nc4ccccc4cc3Sc3cc4ccccc4nc32)cc1,inhibition of growth at 10 µM,UO-31,57 to 73%
O=S(=O)(NC1CCN(Cc2ccc3c(c2)Nc2nccnc2S3)CC1)N1CCOCC1,inhibition in vivo at 10 mg/kg,Mus musculus [6],66.1%
same,IC50,[2],270 to 1400 nM
CN1CCN(CC#CCN2c3cccnc3Sc3cccnc32)CC1,IC50,MCF7,7.5 µg/mL
CS(=O)(=O)N1CCN(Cc2ccc3c(c2)Nc2nccnc2S3)CC1,inhibition in vivo at 10 mg/kg,Mus musculus [6],53.4%
same,IC50,[2],270 to 1400 nM
CS(=O)(=O)NCCC1CCN(Cc2ccc3c(c2)Nc2nccnc2S3)CC1,inhibition in vivo at 10 mg/kg,Mus musculus [6],83.4 to 89.7%
same,IC50,[2],270 to 1400 nM
O=C(O)C(=O)O.c1ccc2c(c1)Sc1cnccc1N2CCCN1CCOCC1,Activity,Rattus norvegicus,59 - 86%
O=C(O)CC1C2CCCC1CN(Cc1ccc3c(c1)Nc1nccnc1S3)C2 (stereo in doubt; 64d),IC50,[2],2300 nM
same,inhibition (INH),Mus musculus [3],80.6%
CN1CCN(c2ncc3c(n2)Sc2ccccc2N3)CC1,IC50,Lipoxygenase,87700 nM
CN(C)CCCN1c2ccccc2Sc2cnccc21.O=C(O)C(=O)O,Activity,Rattus norvegicus,59 - 86%
Cc1ncc2c(n1)N=c1c(c3c(c4ccccc14)=Nc1cc([N+](=O)[O-])ccc1O3)S2,MIC,Bacillus cereus,87.1 µg/mL
same,MIC,Escherichia coli,87.1 to 97.1 µg/mL
C[n+]1cc2c(c3ccccc31)Nc1ccc(Br)cc1S2.[Cl-],MIC,"Staphylococcus aureus [7]; Staphylococcus aureus, read-out: MIC",26 µg/mL
same,MIC,Enterococcus faecalis,9 µg/mL
N#Cc1c(O)ncc2c1Nc1ccccc1S2,IC50,[8],310 to 910 nM
Cn1c(=O)[nH]c2c(c1=O)Nc1ccccc1S2,IC50,[9],1900 nM
c1ccc2c(c1)Nc1nnc(N3CCOCC3)cc1S2,IC50,[10],> 287000 nM
CN1c2ccccc2Sc2cnc(O)c(C#N)c21,IC50,[8],310 to 910 nM
O=[N+]([O-])c1cnccc1N1c2cccnc2Sc2cccnc21,IC50,HFF-1,≥ 50 µg/mL
same,IC50,MCF7,4.6 µg/mL
O=C(O)C1CC2(CCN(Cc3ccc4c(c3)Nc3nccnc3S4)CC2)C1,IC50,[2],420 to 1000 nM
same,inhibition in vivo at 10 mg/kg,Mus musculus [3],82.8%
CN1CCN(c2cc3c(nn2)Nc2ccccc2S3)CC1,IC50,[10],> 287000 nM
c1cnc2c(c1)Sc1ccncc1N2,inhibition at 50 µg/mL,PBMC [11],> 70%
same,Activity,PBMC [5],<= 22%
CSc1nnc2c3c(cnn12)Sc1ccccc1N3,Activity,Mus musculus [12],54 - 65%
COc1ccc2c(c1Cl)Sc1nccnc1N2C,IC50,[13],1 to 5 µg/mL
CC(=O)NCCCN1c2cnccc2Sc2cccnc21,inhibition at 50 µg/mL,PBMC [11],60%
same,Activity,PBMC [5],<= 22%
O=[N+]([O-])c1cnc2c(c1)Sc1cccc(F)c1N2,inhibition zone (IZ),Bacillus subtilis,8 - 12 mm
same,inhibition zone (IZ),Staphylococcus aureus [7],8 - 15 mm
same,inhibition zone (IZ),Escherichia coli,7 - 12 mm
O=[N+]([O-])c1cnc2c(c1)Sc1cccc(Cl)c1N2,inhibition zone (IZ),Bacillus subtilis,12 mm
same,inhibition zone (IZ),Staphylococcus aureus [7],8 - 15 mm
same,inhibition zone (IZ),Escherichia coli,7 - 12 mm
CC(CN(C)C)CN1c2cnccc2Sc2cccnc21 (configuration not stated),inhibition at 50 µg/mL,PBMC [11],60%
same,inhibition at 5 µg/mL,PBMC [4],> 85%
same,Activity,PBMC [5],<= 22%
N#Cc1c(O)ncc2c1Nc1ccc(Cl)cc1S2,IC50,[8],310 to 910 nM
Clc1nc2c(nc1Cl)N(CCC1CCCN1)c1ccccc1S2 (configuration not stated),inhibition at 100 ppm,[14],100%
same,inhibition at 100 ppm,Aureobasidium pullulans,100%
same,inhibition at 100 ppm,Candida albicans [15],100%
same,inhibition at 100 ppm,Staphylococcus aureus [16],100%
same,inhibition at 100 ppm,Aspergillus terreus,100%
N#Cc1c2c(c[nH]c1=O)Sc1ccc(N)cc1N2,IC50,[8],310 to 910 nM
O=C(O)C(=O)O.c1ccc2c(c1)Sc1cnccc1N2CCCN1CCCC1,Activity,Rattus norvegicus,59 - 86%
CC(C)N(CCSC(=O)N1c2ccccc2Sc2cc(Cl)cnc21)C(C)C,MED50,Mus musculus [17],0.058 to 1.8 mg/kg
C#CCN1c2cccnc2Sc2cccnc21,IC50,MCF7,3.9 µg/mL
CN(C)CCCN1c2ccccc2Sc2nc(Cl)c(Cl)nc21,inhibition at 100 ppm,[14],100%
same,inhibition at 100 ppm,Aureobasidium pullulans,100%
same,inhibition at 100 ppm,Candida albicans [15],100%
same,inhibition at 100 ppm,Staphylococcus aureus [16],100%
same,inhibition at 100 ppm,Aspergillus terreus,100%
CN(C)CCN1c2ccccc2Sc2cnccc21.O=C(O)C(=O)O,Activity,Rattus norvegicus,59 - 86%
O=C(NCCCl)NCCCN1c2ccc(Cl)cc2Sc2cc3ccccc3nc21,inhibition,[18],80%
CC(C)N(CCSC(=O)N1c2cc(F)ccc2Sc2cccnc21)C(C)C,MED50,Mus musculus [17],0.058 to 1.8 mg/kg
c1ccc(CN2c3cnccc3Sc3cccnc32)cc1,inhibition at 5 µg/mL,PBMC [4],> 85%
same,Activity,PBMC [5],<= 22%
